The numbers were not newly measured in US20030035834A1, “Sustained release verapamil pharmaceutical composition free of food effect and a method for alleviating food effect in drug release” (priority 2000, published 2003), which cites them from elsewhere.

Like-named read-outs stand apart in the source and are kept apart here.

As for `COc1ccc2c3c1O[C@H]1C(=O)CC[C@@]4(O)[C@@H](C2)N(C)CC[C@]314` [oxycodone], the “difference in availability, fasted vs fed” value (extended release tablets) is recorded as “no difference” and the “difference in availability, fasted vs fed” value (immediate release aqueous solution) is “significant difference”.
